Values belong to the compound of their own block, whether it stands above or below them.
Experiments:
[1] = Blood-plasma PK after topical eye drop administration; settings: for concentration at 6 h: Plasma concentration at 6 h
Experimental: (§1) A total number of 59 rabbits were included in this part of the study. All rabbits were consecutively assigned to one of the two study groups. […] Group 2 animals were dosed with 0.15% candesartan eye drops, while 23 rabbits received a single dose and 5 rabbits received multiple doses of the eye drops. Single dose rabbits of both groups were additionally randomized to one of five euthanasia time points: 0.5 h ± 5 min, 1.5 h ± 5 min, 3 h ± 10 min, 6 h ± 15 min or 12 h ± 30 min after instillation. In all animals, 35 μL of the study drug were instilled in the conjunctival sac of the right eye with a calibrated pipette using single-use dispensers. Single dose animals were instilled only once while multiple dose animals were instilled twice daily for a total of 5 days. In all animals only the right eye was treated. To assess drug concentrations, eyes were enucleated at the end of the study period. Before enucleation, rabbits were euthanized in deep anesthesia (ketamine 60 mg/kg, xylazine 16 mg/kg, s.c.) by an intravenous over-dose of pentobarbitone sodium (300 mg/kg i.v.) and enucleation was performed immediately after euthanasia. Single dose animals were enucleated at one of the five specified time-points. Multiple dose animals were euthanized 1 h ± 30 min after the last drug administration. From each animal both eyes were enucleated and stored at −80 °C. For separation of the different ocular tissues, the eyeball was removed from −80 °C storage and corneal tissue, aqueous humor, vitreous humor and retinal/choroidal tissue were dissected. The tissues were collected separately in individual tubes, which were weighed and then stored at −80 °C.
A venous blood sample of 2 mL was collected from the saphenous vein before the (first) drug administration and prior to euthanasia to determine systemic drug exposure at baseline and after drug administration. The blood was centrifuged for 10 min at a temperature of 10 °C and a speed of 3000 rpm. The resulting supernatant was separated and stored in a tube at −80 °C until further processing.
(§2) Both, the eye-tissue and plasma samples were shipped to Nucro-Technics (Nucro-Technics, 2000 Ellesmere Road, Unit #16, Scarborough, ON, Canada) for quantitative analysis. For this purpose, a new liquid chromatography/tandem mass spectrometry method for simultaneous quantification of candesartan and irbesartan in rabbit eye tissues including cornea, aqueous humor, vitreous body and retina was developed. The exact method and validation are described in detail elsewhere.
(§3) This study was designed to assess pharmacokinetics and local tolerability, no formal sample size calculation has been performed. Descriptive statistics was used for all quantitative data to describe drug concentrations after the single and multiple dosing in the different tissues. […] For pharmacokinetic calculations Phoenix WinNonlin 8.1 (Certara, Princeton, NJ, USA) was used, and the statistical analysis was done using CSS Statistica 6.0 (Tulsa, OK, USA).
(§4) To facilitate calculation of the PK parameters, a plausibility check was performed and values below the lower limit of quantification (BLOQ; plasma: <0.05 ng/mL; tissue: <5 ng/g (irbesartan), <2 ng/g (candesartan)) were set to 0. […] All baseline plasma sample values were set to zero.

[2] = target: angiotensin II receptor (AT1 subtype); settings: cited from earlier work
[3] = Single-dose ocular bio-distribution and pharmacokinetics of topical γCD based eye drops (LC-MS/MS of ocular tissues); settings: for Cmax / Tmax: topical or ocular
Experimental: as §1, §2, §3, §4

[4] = Pre-formulation studies (γCD complexation, physicochemical parameters)
Experimental: Pre-formulation studies with different candesartan (0.1–0.2%) and irbesartan (1.0–2.0%) concentrations were performed to find the optimal drug concentration for the animal experiments.

[5] = Multiple-dose ocular bio-distribution (twice daily for 5 days, tissues 1 h after last dose); settings: New Zealand White, rabbit, topical, 35 µL
Experimental: as §1, with “Single dose animals were enucleated at one of the five specified time-points. Multiple dose animals were euthanized 1 h ± 30 min after the last drug administration. From each animal both eyes were enucleated and stored at −80 °C. For separation of the different ocular tissues, the eyeball was removed from −80 °C storage and corneal tissue, aqueous humor, vitreous humor and retinal/choroidal tissue were dissected. The tissues were collected separately in individual tubes, which were weighed and then stored at −80 °C.” left out
as §2, with “The exact method and validation are described in detail elsewhere.” left out
This study was designed to assess pharmacokinetics and local tolerability, no formal sample size calculation has been performed. Descriptive statistics was used for all quantitative data to describe drug concentrations after the single and multiple dosing in the different tissues. […]
To facilitate calculation of the PK parameters, a plausibility check was performed and values below the lower limit of quantification (BLOQ; plasma: <0.05 ng/mL; tissue: <5 ng/g (irbesartan), <2 ng/g (candesartan)) were set to 0. […]

[6] = New Zealand White, rabbit, plasma, topical or ocular, 35 µL
[7] = New Zealand White, rabbit, in vivo, topical or ocular
[8] = New Zealand White, rabbit, in vivo

Cmax [1, 6]: 4.32 ± 1.04 ng/mL | Tmax [1, 6]: 30 min | half-life [1, 6]: 584 min | concentration at 1 h after last dose ([1]; New Zealand White, rabbit, plasma, topical, 35 µL, Mean plasma levels (Cmean) after the last dose, multiple doses twice daily for 5 days): 4.78 ± 1.48 ng/mL | Plasma AUC ([1]; single topical administration, AUC 0 h-12 h): 8.75 (ng/mL)*h | Cmax ([3]; New Zealand White, rabbit, aqueous humor, treated study eye, 35 µL, Cmax SE, aqueous humor (AH), single dose, study eye, mean ± SD, also published separately [20]): 30 ± 14 ng/g | Tmax ([3]; New Zealand White, rabbit, aqueous humor, treated study eye, 35 µL, Tmax SE, aqueous humor (AH), single dose, study eye, also published separately [20]): 180 min | Cmax ([3]; New Zealand White, rabbit, aqueous humor, untreated control eye, 35 µL, Cmax CE, aqueous humor (AH), single dose, control eye, also published separately [20]): < 2 ng/g | Cmax ([3]; New Zealand White, rabbit, corneal tissue, treated study eye, 35 µL, Cmax SE, corneal tissue (CT), single dose, study eye, mean ± SD, also published separately [20]): 3500 ± 801 ng/g | Tmax ([3]; New Zealand White, rabbit, corneal tissue, treated study eye, 35 µL, Tmax SE, corneal tissue (CT), single dose, study eye, also published separately [20]): 90 min | Cmax ([3]; New Zealand White, rabbit, corneal tissue, untreated control eye, 35 µL, Cmax CE, corneal tissue (CT), single dose, control eye, mean ± SD, also published separately [20]): 2 ± 4 ng/g | Tmax ([3]; New Zealand White, rabbit, corneal tissue, untreated control eye, 35 µL, Tmax CE, corneal tissue (CT), single dose, control eye, also published separately [20]): 30 min | Cmax ([3]; New Zealand White, rabbit, retinal tissue, 35 µL, Retinal tissue single dose Cmax in molar units, single dose, assuming molar weight 428.54 g/mol irbesartan, 440.45 g/mol candesartan): 144 nM | Cmax ([3]; New Zealand White, rabbit, retinal/choroidal tissue, treated study eye, 35 µL, Cmax SE, retinal(choroidal) tissue (RT), single dose 35 μL topical, mean ± SD): 63 ± 39 ng/g | Tmax ([3]; New Zealand White, rabbit, retinal/choroidal tissue, treated study eye, 35 µL, Tmax SE, retinal tissue (RT), single dose, study eye): ≤ 30 min | half-life ([3]; New Zealand White, rabbit, retinal/choroidal tissue, treated study eye, topical, 35 µL): 323 min | Cmax ([3]; New Zealand White, rabbit, retinal/choroidal tissue, untreated control eye, 35 µL, Cmax CE, retinal tissue (RT), single dose, mean ± SD): < 2 ng/g | Tmax ([3]; New Zealand White, rabbit, retinal/choroidal tissue, untreated control eye, 35 µL, Tmax CE, retinal tissue (RT), single dose, control eye): 30 min | Cmax ([3]; New Zealand White, rabbit, vitreous humor, treated study eye, 35 µL, Cmax SE, vitreous humor (VH), single dose, study eye, mean ± SD): < 2 ng/g | Tmax ([3]; New Zealand White, rabbit, vitreous humor, treated study eye, 35 µL, Tmax SE, vitreous humor (VH), single dose, study eye): 30 min | Cmax ([3]; New Zealand White, rabbit, vitreous humor, untreated control eye, 35 µL, Cmax CE, vitreous humor (VH), single dose, control eye): < 2 ng/g | Time of maximum retinal drug concentration after single administration ([3]; single dose, retina): 30 min | Retinal tissue AUC ([3]; single dose, study eye, AUC 0 h-12 h): 210 ng·h/g | Cmax SE, vitreous humor (VH) ([3]; single dose, study eye, mean ± SD): <2 ng/g | Complexing efficiency of the γCD complex ([4]; compared with irbesartan): lower | concentration at 1 h after last dose ([5]; retinal tissue, Retinal tissue Cmean in molar units, multiple dose, assuming molar weight 428.54 g/mol irbesartan, 440.45 g/mol candesartan): 82 nM | concentration at 1 h after last dose ([5]; retinal/choroidal tissue, treated study eye, Cmean retinal tissue (RT), SE, multiple doses twice daily 5 days, 1 h ± 30 min after last dose, study eye, mean ± SD): 36 ± 10 ng/g | concentration at 1 h after last dose ([5]; vitreous humor, treated study eye, Cmean vitreous humor (VH), SE, multiple doses, 1 h after last dose, study eye): < 2 ng/g
SMILES: CCOc1nc2cccc(C(=O)O)c2n1Cc1ccc(-c2ccccc2-c2nnn[nH]2)cc1 [candesartan]
IC50 [2]: 0.4 nM | Cmax CE, vitreous humor (VH) ([3]; single dose, control eye): below the respective lower quantification limit

concentration at 6 h ([1]; New Zealand White, rabbit, in vivo, mean of the other concentrations (outlier excluded)): 1.16 ng/mL | concentration at 6 h ([1]; New Zealand White, rabbit, in vivo, single value defined as outlier): 65.2 ng/mL | Cmax [1, 7]: 5.64 ± 4.08 ng/mL | Tmax [1, 7]: 30 min | half-life [1, 7]: 1060 min | Plasma AUC ([1]; rabbit, in vivo, topical or ocular): 17.64 (ng/mL)*h | Retinal tissue AUC [3, 8]: 941 ng·h/g | Retinal tissue AUC relative to the corresponding candesartan AUC [3, 8]: around 4.5 times | Time of maximum retinal drug concentration after single administration [3, 8]: 30 min | concentration at 0.5 h [3, 8]: 14 ± 16 ng/g | half-life [3, 8]: 199 min | Cmax ([3]; New Zealand White, rabbit, in vivo, Cmax CE, aqueous humor (AH)): < 5 ng/g | Cmax ([3]; New Zealand White, rabbit, in vivo, Cmax CE, corneal tissue (CT)): 49 ± 85 ng/g | Cmax ([3]; New Zealand White, rabbit, in vivo, Cmax CE, retinal tissue (RT)): 23 ± 34 ng/g | Cmax ([3]; New Zealand White, rabbit, in vivo, Cmax CE, vitreous humor (VH)): < 5 ng/g | Cmax ([3]; New Zealand White, rabbit, in vivo, Cmax SE, aqueous humor (AH)): 121 ± 69 ng/g | Cmax ([3]; New Zealand White, rabbit, in vivo, Cmax SE, corneal tissue (CT)): 3660 ± 988 ng/g | Cmax ([3]; New Zealand White, rabbit, in vivo, Cmax SE, retinal(choroidal) tissue (RT)): 251 ± 142 ng/g | Cmax ([3]; New Zealand White, rabbit, in vivo, Cmax SE, vitreous humor (VH)): 14 ± 16 ng/g | Tmax ([3]; New Zealand White, rabbit, in vivo, Tmax CE, aqueous humor (AH)): 30 min | Tmax ([3]; New Zealand White, rabbit, in vivo, Tmax CE, corneal tissue (CT)): 90 min | Tmax ([3]; New Zealand White, rabbit, in vivo, Tmax CE, retinal tissue (RT)): 30 min | Tmax ([3]; New Zealand White, rabbit, in vivo, Tmax CE, vitreous humor (VH)): 30 min | Tmax ([3]; New Zealand White, rabbit, in vivo, Tmax SE, aqueous humor (AH)): 180 min | Tmax ([3]; New Zealand White, rabbit, in vivo, Tmax SE, corneal tissue (CT)): 90 min | Tmax ([3]; New Zealand White, rabbit, in vivo, Tmax SE, retinal tissue (RT)): ≤ 30 min | Tmax ([3]; New Zealand White, rabbit, in vivo, Tmax SE, vitreous humor (VH)): 30 min | Affinity for the γCD cavity ([4]; among telmisartan, olmesartan, irbesartan and candesartan): highest affinity
SMILES: CCCCC1=NC2(CCCC2)C(=O)N1Cc1ccc(-c2ccccc2-c2nnn[nH]2)cc1 [irbesartan]
IC50 [2]: 1.3 nM | Cmax CE, vitreous humor (VH) ([3]; rabbit, in vivo): below the respective lower quantification limit
